Data from patent US20250341522A1, “Treatment Strategies for Pancreatic Cancer Using Recombinant Acid Sphingomyelinase” (University of Cincinnati, priority 2024, published 2025).

Columns and labels:
ASM = target: T1, ASM (Mus musculus, UniProt Q04519); test: Incubation of ex vivo splenocytes, Ly6G-sorted myeloid cells or J774 macrophages with polyamines: ASM activity and sphingomyelin; type: cell-based, mice; settings: agmatine 5 μM, 8 hr
T1 construct: endogenous in cells; host or cells: ex vivo mouse splenocytes, Ly6G-sorted myeloid cells, J774 macrophages
T1 sequence (Q04519 45-627): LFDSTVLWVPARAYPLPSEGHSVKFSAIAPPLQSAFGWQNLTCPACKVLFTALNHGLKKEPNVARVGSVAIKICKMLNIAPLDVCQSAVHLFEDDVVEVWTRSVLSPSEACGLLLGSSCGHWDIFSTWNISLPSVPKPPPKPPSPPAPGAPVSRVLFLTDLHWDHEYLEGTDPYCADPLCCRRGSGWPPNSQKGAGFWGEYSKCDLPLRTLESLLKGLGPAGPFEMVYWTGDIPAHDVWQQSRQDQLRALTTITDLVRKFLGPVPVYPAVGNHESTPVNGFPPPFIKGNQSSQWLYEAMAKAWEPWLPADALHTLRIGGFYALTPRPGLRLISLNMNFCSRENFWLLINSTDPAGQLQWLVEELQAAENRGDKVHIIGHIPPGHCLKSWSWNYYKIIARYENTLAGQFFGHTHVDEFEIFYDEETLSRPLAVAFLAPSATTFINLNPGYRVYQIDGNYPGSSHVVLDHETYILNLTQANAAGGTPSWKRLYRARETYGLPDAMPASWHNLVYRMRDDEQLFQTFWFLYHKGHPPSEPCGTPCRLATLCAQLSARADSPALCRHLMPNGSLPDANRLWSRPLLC
Description: FIG. 9A is a graph showing the concentration of polyamines in the blood plasma of wt or ASM-tr mice determined by ELISA. FIG. 9B is a graph showing the activity of ASM for splenocytes that were isolated from wt or ASM-tr mice and stimulated for 8 hr with 5 μM agmatine (Agm), 100 μM spermine (Sp), or 100 μM spermidine (Spd). FIG. 9C is a graph showing the concentrations of sphingomyelin for splenocytes that were isolated from wt or ASM-tr mice and stimulated for 8 hr with 5 μM agmatine (Agm), 100 μM spermine (Sp), or 100 μM spermidine (Spd). The activity of ASM and the concentrations of sphingomyelin were determined by an enzyme assay or ELISA. Mean±SD; n=6-8; **p<0.01, ***p<0.001 ANOVA.
An increase of Arg-1 and ADC expression may also increase polyamine concentrations. […]
FIG. 10 is a graph showing ASM activity (A) and levels of sphingomyelin (B), Arg-1 (C), and ADC (D) were determined in macrophages (J774 cell line) or in stable ASM-transfected J774 (with an approximately 3-fold overexpression of ASM) at baseline, after treatment with agmatine (Agm, 5 μM), spermine (Sp, 100 μM), or spermidine (Spd, 100 μM), supernatant (Sup) from KPC cells, and supernatant immunodepleted (id) of polyamines. ASM activity was measured by determining the consumption of [^14C]sphingomyelin, Sphingomyelin-, Arginase-1- and ADC-levels were quantified by ELISA. […]

[1] = tested on: Pan02 pancreas cancer cells; test: Orthotopic pancreatic cancer murine model (Pan02), tumor size 15 days after injection; type: in vivo; settings: wildtype mice, amitriptyline 10 mg/kg i.p. every other day, 15 days after tumor initiation, vs vehicle
Description: The wildtype mice were randomly divided into 2 groups treated with antidepressant (amitriptyline 10 mg/kg, i.p. injected every 2nd day) or vehicle, i.e. 0.9% NaCl. The size of the pancreas cancer was determined 15 days after tumor initiation.
FIG. 4 is a graph showing a growth of PDAC in murine models of orthotopic pancreatic ductal adenocarcinoma. Wildtype mice were injected orthotopically into the pancreas with […] Pan02 pancreas cancer cells and either left untreated or treated with amitriptyline at 10 mg/kg every other day via IP injection starting at day 4 after tumor injection. In addition, we injected acid sphingomyelinase-deficient littermates with Pan02 pancreas cancer cells orthotopically into the pancreas. Tumor size was determined 15 days after injection. Shown are the mean±SD of the tumor size from each n=4-5 mice per group; *p<0.05, ANOVA with Tukey post hoc test.
All animal experiments were approved by the University of Cincinnati Ethic Committee and the Institutional Animal Care and Use Committee. Eight-week-old, wild type male, C57BL/6J mice were purchased from Jackson Labs (000664, Jackson Labs, USA). Acid sphingomyelinase-deficient mice (Smpd1−/−) were bred and genotyped at the animal facility of the University of Cincinnati. […] The size of the pancreas cancer was determined in all groups 15 days after tumor initiation.

[2] = tested on: isolated immune cells from tumors in wt mice; test: Anti-CD3-mediated IL-2 and INFγ formation in isolated immune cells from tumor wt mice; type: cell-based; settings: arginine added to isolated immune cells from tumors in wt mice
Source text: Further, it was confirmed that sphingomyelin caused upregulation of Arg-1 and ADC and the concomitant reduction of arginine concentrations results in immune inhibition. Confirmation was accomplished by the finding that anti-CD3-mediated IL-2 and INFγ-formation, as well as cytotoxicity toward KPC cells, is lower in splenocytes isolated from wt mice injected with PDAC than in splenocytes from ASM-tr mice (FIG. 8E).

KPC-PDAC cells = test: Tumor development and survival of wildtype and ASM-transgenic mice after i.p. injection of KPC-PDAC cells, gemcitabine treatment (Example 4, FIG. 5); type: in vivo; settings: for response of tumors to treatment: i.p. KPC-PDAC cells
Description: FIG. 5 is a graph showing the survival of wildtype and ASM-transgenic mice after i.p. injection of 25,000 KPC cells. Treatment of ASM-transgenic (tr) mice with gemcitabine rescued 100% of the mice from tumor growth. n=12 each group.
An experiment was conducted to determine if acid sphingomyelinase overexpression prevents tumor growth. Based on the clinical data, the effects of ASM overexpression and tumor growth were evaluated.

SLC66A1 = target: T2, SLC66A1 (Mus musculus, UniProt Q8C4N4); test: Binding of [14C]sphingomyelin to immunoprecipitated SLC66A1
T2 construct: SLC66A1 was immunoprecipitated from 40×10^6 splenocytes, after lysis in RIPA-buffer+aprotinin/leupeptin; endogenous in cells; host or cells: splenocytes (immunoprecipitate on protein A/G agarose)
T2 sequence (Q8C4N4 1-293): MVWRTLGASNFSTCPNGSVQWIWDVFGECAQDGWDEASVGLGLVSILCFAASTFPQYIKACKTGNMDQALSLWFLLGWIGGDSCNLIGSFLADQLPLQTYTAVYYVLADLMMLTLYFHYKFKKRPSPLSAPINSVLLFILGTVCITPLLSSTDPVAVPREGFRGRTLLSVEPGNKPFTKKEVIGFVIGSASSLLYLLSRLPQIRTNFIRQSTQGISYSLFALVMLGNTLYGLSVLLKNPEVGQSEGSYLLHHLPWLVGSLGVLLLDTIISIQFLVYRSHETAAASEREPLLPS
Description: FIG. 7A is a graph showing the binding of [^14C]sphingomyelin (SM), [^14C]ceramide (Cer), and [^14C]sphingosine (SPH) in the absence or presence of the VMLTLYFYY peptide.
(§1) The lysosomal arginine transporter SLC66A1 contains a VMLTLYFYY motif. A study was conducted to investigate whether SLC66A binds to sphingomyelin. […] Additionally, efflux of arginine was markedly higher in lysosomes of splenic myeloid cells isolated from wt tumors than in cells from control mice and absent in ASM-tr cells (FIG. 7B).
FIG. 7A is a graph showing SLC66A1 was immunoprecipitated from 40×10^6 splenocytes, after lysis in RIPA-buffer+aprotinin/leupeptin. Immunocomplexes were immobilized on protein A/G agarose, washed 3-times in RIPA buffer and twice in PBS+0.1% Triton X100, resuspended in the same buffer and binding of [^14C]sphingomyelin (SM), [^14C]ceramide (Cer), or [^14C]sphingosine (SPH) was measured in the absence or presence of the VMLTLYFYY peptide.

[3] = tested on: lysosomal arginine transport; test: Efflux of arginine from isolated lysosomes of Ly6G-sorted splenocytes; type: biochemical, mice; settings: lysosomes of wt cells treated with sphingomyelin
Description: FIG. 7B is a graph showing the results of isolated lysosomes from Ly6G-sorted splenocytes obtained from mice with or without PDAC being loaded with [^14C]arginine and the efflux of [3H]arginine being determined. Aliquots of the lysosomes were treated with sphingomyelin.
as §1
FIG. 7B is a graph showing isolated lysosomes from Ly6G-sorted splenocytes obtained from mice with or without PDAC were loaded with [^14C]arginine and the efflux of [3H]arginine was determined. Aliquots of the lysosomes were treated with sphingomyelin. Mean±SD; n=6-8; ***p<0.001 ANOVA.

## N=C(N)NCCCCN [agmatine]
ASM
  ASM activity: inhibited ASM activity
  cellular sphingomyelin concentrations: increased cellular sphingomyelin concentrations

## CN(C)CCC=C1c2ccccc2CCc2ccccc21 [amitriptyline]
[1]
  tumor growth (tumor size): increased tumor growth

## N=C(N)NCCC[C@H](N)C(=O)O [arginine]
[2]
  CD3-mediated formation of IL-2 and INFγ: restored

## Nc1ccn([C@@H]2O[C@H](CO)[C@@H](O)C2(F)F)c(=O)n1 [gemcitabine]
KPC-PDAC cells; ASM-tr mice, low dose of gemcitabine
  response of tumors to treatment: completely eradicate the tumors
KPC-PDAC cells; ASM-transgenic mice, 25,000 KPC cells i.p., n=12
  mice rescued from tumor growth: 100%
KPC-PDAC cells; wt mice
  response of tumors to treatment: resistant

## VMLTLYFYY [VMLTLYFYY peptide]
SLC66A1; excess synthetic peptide
  binding of sphingomyelin to SLC66A1 in the presence of peptide: almost abrogated

## sphingomyelin
SLC66A1; immunoprecipitation from splenocytes, [14C]sphingomyelin
  binding to SLC66A1: direct and specific binding
[3]
  efflux of arginine from lysosomes: strongly activated
